Source: patent publication US20250276977A1, “TYK2 INHIBITORS AND USES THEREOF” (Alumis Inc., priority 2019, published 2025)

Key:
[1] = tested on: JAK2/TYK2 (IL-12 induced pSTAT4); assay: IL-12 induced pSTAT4 in human PBMC; type: cell-based; conditions: IL-12 10 ng/ml
Experimental: (§1) Fresh Human PBMCs were resuspended in RPMI 1640 medium with 10% FBS. Cells were seeded in a round bottom 96-well plate at the concentration of 200,000 cells/well. A 10-point dilution series of test compound (top dose 10 uM, 1:5 dilution) was added to the well using the liquid dispenser (Tecan D300e) and incubated for 1 hour at 37 C. Then human IL-12 recombinant protein (R&D Systems) was added to the well at the final concentration of 10 ng/ml and incubated for 15 minutes at 37 C. Cell lysates were prepared and analyzed by Phospho STAT4 (Tyr693) Kit (Meso Scale Discovery) following manufacturer's protocol.
For calculation of the inhibition rate, the relative pSTAT4 signal of each well=pSTAT4 signal of each well−the average pSTAT4 signal of baseline.
The inhibition %=(the average pSTAT4 signal of IL-12 treatment wells—the relative of pSTAT4 signal in each compound containing well)/the average pSTAT4 signal of IL-12 treatment wells*100%
(§2) The curve was plotted as the inhibition % (y-axis) vs. compounds concentration (x-axis) and was fitted with log(inhibitor) vs. normalized response—Variable slope by GraphPad Prism7.0.

[2] = molecular target: T1, human TYK2 (JH2domain-pseudokinase) (Homo sapiens, UniProt P29597); assay: TYK2 JH2 domain binding assay (KINOMEscan); conditions: duplicate
T1 construct: host or cells: transiently transfected HEK293 cells; unpurified extract
T1 sequence (P29597 556-888): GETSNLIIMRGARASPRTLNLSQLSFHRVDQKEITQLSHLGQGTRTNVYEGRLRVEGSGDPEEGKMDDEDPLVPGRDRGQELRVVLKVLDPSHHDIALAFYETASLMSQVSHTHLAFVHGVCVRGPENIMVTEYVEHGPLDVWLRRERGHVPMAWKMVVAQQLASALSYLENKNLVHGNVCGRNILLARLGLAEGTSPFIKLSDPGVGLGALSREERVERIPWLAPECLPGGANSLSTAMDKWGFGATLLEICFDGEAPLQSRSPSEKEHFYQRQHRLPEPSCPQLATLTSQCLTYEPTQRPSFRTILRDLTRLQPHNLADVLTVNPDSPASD
Experimental: Binding constants for the compounds described herein against the JH2 domain were determined by the following protocol for a KINOMEscan® assay (DiscoveRx). A fusion protein of a partial length construct of human TYK2 (JH2domain-pseudokinase) (amino acids G556 to D888 based on reference sequence NP_003322.3) and the DNA binding domain of NFkB is expressed in transiently transfected HEK293 cells. From these HEK 293 cells, extracts are prepared in M-PER extraction buffer (Pierce) in the presence of Protease Inhibitor Cocktail Complete (Roche) and Phosphatase Inhibitor Cocktail Set II (Merck) per manufacturers' instructions. The TYK2 (JH2domain-pseudokinase) fusion protein is labeled with a chimeric double-stranded DNA tag containing the NFkB binding site fused to an amplicon for qPCR readout, which is added directly to the expression extract (the final concentration of DNA-tag in the binding reaction is 0.1 nM).
The liganded beads are blocked with excess biotin and washed with blocking buffer (SeaBlock (Pierce), 1% BSA, 0.05% Tween 20, 1 mM DTT) to remove unbound ligand and to reduce nonspecific binding.
Extracts are used directly in binding assays without any enzyme purification steps at a ≥10,000-fold overall stock dilution (final DNA-tagged enzyme concentration <0.1 nM). Extracts are loaded with DNA-tag and diluted into the binding reaction in a two-step process. First extracts are diluted 1:100 in 1× binding buffer (PBS/0.05% Tween 20/10 mM DTT/0.1% BSA/[…] sonicated salmon sperm DNA) containing 10 nM DNA-tag. This dilution is allowed to equilibrate at room temperature for 15 minutes and then subsequently diluted 1:100 in 1× binding buffer. Test compounds were prepared as 111×stocks in 100% DMSO. […] The compounds are then diluted directly into the assays such that the final concentration of DMSO was 0.9%. All reactions are performed in polypropylene 384-well plates. Each was a final volume of 0.02 mL.
Assays are incubated with shaking for 1 hour at room temperature. Then the beads are pelleted and washed with wash buffer (1×PBS, 0.05% Tween 20) to remove displaced kinase and test compound. […] The kinase concentration in the eluates was measured by qPCR. qPCR reactions are assembled by adding […] of kinase eluate to […] of qPCR master mix containing […] amplicon primers and […] amplicon probe. The qPCR protocol consisted of a 10 minute hot start at 95° C., followed by 35 cycles of 95° C. for 15 seconds, 60° C. for 1 minute.
Test compounds are prepared as 111×stocks in 100% DMSO. […] The compounds are then diluted directly into the assays such that the final concentration of DMSO was 0.9%. The Kds are determined using a compound top concentration of 30,000 nM. Kd measurements are performed in duplicate.
Binding constants (Kds) were calculated with a standard dose-response curve using the Hill equation: […]
The Hill Slope was set to −1. Curves were fitted using a non-linear least square fit with the Levenberg-Marquardt algorithm (Levenberg, K., A method for the solution of certain non-linear problems in least squares, Q. Appl. Math. 2, 164-168 (1944)).

INFα induced pSTAT3 = INFα induced pSTAT3 in human PBMC; type: cell-based; conditions: INFα 5000 units/ml, read-out: p-STAT3 IC50
Experimental: as §1, with “INFα” for “IL-12”, “5000 units/ml” for “10 ng/ml”, “STAT3 (Tyr705) cellular kit (Cisbio) or Phospho STAT5” for “STAT4”
(§3) For calculation of the inhibition rate, the relative pSTAT signal of each well=pSTAT signal of each well−the average pSTAT signal of baseline.
(§4) The inhibition %=(the average pSTAT signal of INFα treatment wells—the relative of pSTAT signal in each compound containing well)/the average pSTAT signal of INFα treatment wells * 100%
as §2

[3] = Pharmacokinetic studies in Sprague Dawley rats; type: in vivo; conditions: rat, plasma, male Sprague Dawley rats
Experimental: The pharmacokinetics of test compounds were evaluated in male Sprague Dawley rats when administered via oral gavage and IV injection. The test compound was suspended in 0.5% methylcellulose for oral gavage and dissolved in 5% DMSO/5% Solutol/90% saline for IV injection. The animals were fasted overnight before administration. Plasma samples were collected predose and at 0.5, 1, 3, 6, 9, 12, and 24 hours postdose. The samples were analyzed by LC/MS/MS and the concentration of test compound at each timepoint was determined by linear regression. Pharmacokinetic parameters were calculated from the plasma concentrations using Pheonix WinNonlin.

INFα induced pSTAT5 = INFα induced pSTAT5 in human PBMC; type: cell-based; conditions: Homo sapiens, PBMC, INFα 5000 units/ml, read-out: p-STAT5 IC50
Experimental: as §1, with “INFα” for “IL-12”, “5000 units/ml” for “10 ng/ml”, “STAT3 (Tyr705) cellular kit (Cisbio) or Phospho STAT5” for “STAT4”
as §3, §4, §2

IL-2-induced pSTAT5 = IL-2-induced pSTAT5 in human PBMC; type: cell-based; conditions: 20 ng/ml of IL-2
Experimental: (§5) Similar to the method for INFα induced pSTAT5 in human PBMC described above, these assays were performed to check if test compounds have cross-activity to JAK1. JAK2 and JAK3 pathways in human PBMC. The procedure is as described with change of stimuli to 10 ng/ml of GM-CSF or 20 ng/ml of IL-2.

JAK1 (JH2 domain) = molecular target: T2, JAK1 (JH2 domain) (Homo sapiens, UniProt P23458); assay: JAK1 JH2 domain binding assay (KINOMEscan)
T2 construct: inferred from 'similar to the method' for TYK2 JH2; DiscoverX (KINOMEscan)
T2 sequence (P23458 583-855 limits assumed): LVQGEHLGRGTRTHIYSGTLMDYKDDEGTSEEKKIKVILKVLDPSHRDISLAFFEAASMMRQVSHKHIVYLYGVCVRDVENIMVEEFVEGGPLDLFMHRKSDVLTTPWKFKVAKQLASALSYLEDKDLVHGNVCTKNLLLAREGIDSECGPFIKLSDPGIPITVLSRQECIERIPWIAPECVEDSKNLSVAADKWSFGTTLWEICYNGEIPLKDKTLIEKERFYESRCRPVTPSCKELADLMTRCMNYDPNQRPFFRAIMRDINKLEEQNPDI

JAK2 (JH1 domain) = molecular target: T3, JAK2 (JH1 domain) (Homo sapiens, UniProt O60674); assay: JAK2 JH1 domain binding assay (KINOMEscan)
T3 construct: inferred from 'similar to the method' for TYK2 JH2; DiscoverX (KINOMEscan)
T3 sequence (O60674 849-1124 limits assumed): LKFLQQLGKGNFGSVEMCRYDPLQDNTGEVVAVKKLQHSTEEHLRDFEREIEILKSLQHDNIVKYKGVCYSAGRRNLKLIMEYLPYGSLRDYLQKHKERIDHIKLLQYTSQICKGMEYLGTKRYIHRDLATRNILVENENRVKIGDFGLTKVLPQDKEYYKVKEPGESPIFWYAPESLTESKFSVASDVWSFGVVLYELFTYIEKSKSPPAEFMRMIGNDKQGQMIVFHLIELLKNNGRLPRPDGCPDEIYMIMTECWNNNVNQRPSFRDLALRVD

GM-CSF-induced pSTAT5 = GM-CSF-induced pSTAT5 in human PBMC; type: cell-based; conditions: 10 ng/ml of GM-CSF
Experimental: as §5

Compound | IC50 [1] | Kd [2] | IC50 (INFα induced pSTAT5) | IC50 (IL-2-induced pSTAT5) | further results
CNc1cc2nc3c(cnn13)C(=O)NCCOCc1cnc(OC)c(c1)N2 [Example 1] | 281 nM | 0.24 nM | – | – | IC50 (INFα induced pSTAT3): 87.5 nM
CNc1cc2nc3c(cnn13)C(=O)NCCOCc1ccc(OC)c(c1)N2 [Example 2] | 12.2 nM | 0.14 nM | – | – | –
CNc1cc2nn3c(cnc13)C(=O)NCCCOc1ccc(OC)c(c1)N2 [Example 4] | 16.1 nM | 0.38 nM | – | – | –
CNc1cc2nn3c(cnc13)C(=O)N[C@H](C)COCc1cc(c(OC)c(F)c1F)N2 [Example 19, (7R,E)-3^4,3^5-difluoro-3^6-methoxy-7-methyl-1^8-(methylamino)-5-oxa-2,8-diaza-1(6,3)-imidazo[1,2-b]pyridazina-3(1,3)-benzenacyclononaphan-9-one] | – | – | 8.7 nM | 38500 nM | –
[2H]C([2H])([2H])NC(=O)c1nnc(NC(=O)C2CC2)cc1Nc1cccc(-c2ncn(C)n2)c1OC [control, BMS-986165, reference compound] | – | – | – | 442 nM | IC50 (GM-CSF-induced pSTAT5): 1310 nM

Continued, in another order:

IC50 [1] | Kd [2] | IC50 (INFα induced pSTAT5) | IC50 (IL-2-induced pSTAT5) | Compound | further results
1150 nM | 0.96 nM | – | – | CNc1cc2nc3c(cnn13)C(=O)NCCCOc1ccc(OC)c(c1)N2 [Example 3] | IC50 (INFα induced pSTAT3): 1460 nM
– | 0.0071 nM | 2.3 nM | – | CNc1cc2nn3c(cnc13)C(=O)NC(C)COCc1ccc(OC)c(c1)N2 (stereo not drawn) [Example 7] | AUC ([3]; iv, I.V. (1 mg/kg)): 318 ± 30 ng·h/mL; C0 ([3]; iv, I.V. (1 mg/kg)): 1230 ± 153 ng/mL; clearance ([3]; iv, I.V. (1 mg/kg)): 52.4 ± 5.3 mL/min/kg; half-life ([3]; iv, I.V. (1 mg/kg)): 18 ± 0.96 min; Vd ([3]; iv, I.V. (1 mg/kg), read-out: Vdss): 0.956 ± 0.1 L/kg; AUC ([3]; Oral (5 mg/kg)): 84.9 ± 36 ng·h/mL; Cmax ([3]; Oral (5 mg/kg)): 18.2 ± 3.1 ng/mL; Tmax ([3]; Oral (5 mg/kg)): 40 ± 17.4 min; bioavailability ([3]; Oral (5 mg/kg)): 5.34 ± 2.3%; half-life ([3]; Oral (5 mg/kg)): 238 ± 66 min
– | 0.0023 nM | 1.2 nM | > 10000 nM | CNc1cc2nc3c(cnn13)C(=O)N[C@H](C)COCc1ccc(C(F)(F)F)c(c1)N2 [Example 10] | Kd (JAK1 (JH2 domain)): 430 nM; Kd (JAK2 (JH1 domain)): 7300 nM
– | – | 0.5 nM | 9390 nM | CNc1cc2nn3c(cnc13)C(=O)N[C@H](C)COCc1cc(c3nn(C)cc3c1)N2 [Example 24] | –
